Tests used:
BV-2 cells = assay: Griess assay of LPS-induced nitrite release in BV-2 cells; format: cell-based; conditions: BV2 microglial cells, with or without LPS stimulation, FIG. 1
Method: (§1) Cells increase the secretion of nitrite when induced to be inflammatory, but decrease the secretion of nitrite in the presence of an anti-inflammatory agent. […] Cells were treated with the compounds in the absence or presence of 100 ng/mL LPS (lipopolysaccharide). After 24 hrs of incubation, the cell culture media were reacted with Griess reagent (0.1% naphthylethylenediamine dihydrochloride and 1% sulfanilamide in 2% phosphoric acid). Absorbance was measured at 550 nm using a microplate reader, and the level of nitrite was estimated by comparison with a sodium nitrite standard curve.

[1] = tested on: HAPI cells, Primary neuroblastoma, and RAW 264.7 cells; assay: Griess assay of nitrite release in further cell lines; format: cell-based; conditions: LPS stimulation, FIG. 2
Method: as §1

Il6, Il1b, Nos2, and Tnf = assay: RT-PCR of pro-inflammatory mediator expression; format: cell-based; conditions: FIG. 3
Method: For the analysis of gene expression, cells were incubated with ICM for 6 hrs in the presence of LPS (for control, cells were treated with DMSO in the absence of LPS). Total RNA was extracted from cells using TRIzol reagent. Reverse transcription was conducted using Superscript II (Invitrogen) and oligo (dT) primers. PCR amplification was conducted using a DNA Engine Tetrad Peltier Thermal Cycler (Bio-Rad) using specific primer sets (at an annealing temperature of 55-60° C. for 20-30 cycles). To analyze PCR products, each sample was electrophoresed on a 1% agarose gel. The Gapdh (Glyceraldehyde-3-phosphate dehydrogenase) gene was used as an internal control.

[2] = tested on: proinflammatory cytokine TNFα; assay: TNF-α ELISA of LPS-induced secretion; format: cell-based; conditions: FIG. 4
Method: TNF-α secretion was measured using a TNF-α ELISA kit. Cells were treated with LPS in the absence or presence of ICM. After 24 hrs of incubation, the levels of TNF-α in the culture medium were measured with rat monoclonal anti-mouse TNF-α antibody as a capture antibody, and goat biotinylated polyclonal anti-mouse TNF-α antibody as a detection antibody. The biotinylated anti-TNF-α antibody was detected by sequential incubation with streptavidin-horseradish peroxidase conjugate. After incubation with a TMB substrate for 20 min, the color development was stopped by adding 2 N H2SO4. The absorbance was then read (450 nm and 540 nm) using a microplate reader.

NF-κB signaling (p65) = assay: Immunofluorescence staining of nuclear translocation of p65; format: cell-based; conditions: LPS stimulation, FIG. 5
Method: Cells were pretreated with ICM and LPS for 1 hr and then fixed with 4% paraformaldehyde for 30 min at 20° C. and with cold methanol for 10 min at −20° C. After permeabilization with 0.3% Triton X-100 and PBS for 10 min, the fixed cells were blocked with 1% normal horse serum for 1 hr and incubated with mouse anti-p65 antibody at 4° C. for 12˜16 hrs. After washing with PBS containing 0.05% Tween-20 (PBST), Alexa Fluor-488-labeled goat anti-mouse IgG antibody was added to the sample, incubated for 1 hr at room temperature and washed with PBST. Nuclei were visualized by DAPI staining. Samples were analyzed by fluorescence microscopy.

HMGB2 [3] = target: T1, HMGB2 (Mus musculus, UniProt P30681); assay: Griess assay in BV-2 cells with siRNA-mediated HMGB2 knockdown; format: cell-based; conditions: normalized to DMSO treatment, FIG. 16
T1 construct: endogenous in cells
T1 sequence (P30681 1-210): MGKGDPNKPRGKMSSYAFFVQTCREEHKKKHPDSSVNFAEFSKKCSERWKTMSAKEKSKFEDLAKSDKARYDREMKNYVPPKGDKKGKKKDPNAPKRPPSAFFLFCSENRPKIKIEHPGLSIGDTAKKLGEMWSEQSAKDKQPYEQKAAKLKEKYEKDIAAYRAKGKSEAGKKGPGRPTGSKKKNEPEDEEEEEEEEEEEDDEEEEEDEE
Method: as §1
The siRNA transfection of BV-2 microglial cells was performed using Lipofectamine™ 2000 (Invitrogen). Forty-eight hours after transfection, the cells were used for further experiments.

HMGB2 [4] = target: T1, HMGB2; assay: Subcellular fractionation and secretion analysis; format: cell-based; conditions: LPS stimulation, western blotting, FIG. 17
Method: (§2) After exposure to ICM in the presence of LPS for 18 hrs, cells were lysed in subcellular fraction buffer (250 mM sucrose, 20 mM HEPES, 10 mM KCl, 1 mM EDTA, 1 mM EGTA, 1 mM DTT, and protease inhibitor cocktail), passed through a 25-Ga needle several times, and incubated on ice for 20 min. After centrifugation at 3,000 rpm for 5 min, the pellet and the supernatant were separated. The nuclear pellet was washed and then resuspended in standard lysis buffer with 10% glycerol and 0.1% SDS. The cytosolic fraction was obtained by centrifugation of the separated supernatant at 8,000 rpm for 15 min. The conditioned medium was collected for the analysis of the extracellular level of HMGBs and concentrated with Amicon Ultra 10K filters. The samples were analyzed by electrophoresis and western blotting.

HMGB2 and HMGB1 = assay: Immunoprecipitation analysis of post-translational modification; format: cell-based; conditions: western blotting, FIG. 18
Method: as §2
For the analysis of post-translational modification levels on HMGB, immunoprecipitation was performed. […] The concentration of protein was measured by BCA assay, and the lysates were incubated overnight with an anti-phosphoserine antibody or an anti-acetylated lysine antibody at 4° C., followed by precipitation with a protein G immunoprecipitation kit (Sigma). Each of the samples was analyzed for HMGB2 level by western blot assays.

EAE model = assay: Experimental auto-immune encephalitis (EAE) model; format: in vivo, C57BL/6 mice

`CC1(C)Oc2cc(O)ccc2C2C1=CCn1c(=O)n(-c3ccccc3)c(=O)n12` (stereo not shown) [ICM] was tested, and the LPS-induced nitrite release (BV-2 cells) was “efficiently blocked LPS-induced nitrite release from BV2 microglial cells in a dose-dependent manner”, the nitrite release [1] was “inhibit nitrite release in a broad range of cell lines” and the “LPS-induced expression of pro-inflammatory genes” value (Il6, Il1b, Nos2, and Tnf) was “suppressed the LPS-induced expression of pro-inflammatory genes in a dose-dependent manner”. The “LPS-induced secretion of TNFα” value [2] was “suppressed LPS-induced secretion of the proinflammatory cytokine”, the “nuclear translocation of p65” value (NF-κB signaling (p65)) was “suppressed NF-κB signaling” and the “anti-inflammatory effect on LPS-induced nitrite release under HMGB2 knockdown” value (HMGB2 [3]) was “anti-inflammatory effect of ICM was decreased by HMGB2 knockdown”. For the same compound, the “translocation of HMGB2 from nucleus to cytoplasm and extracellular milieu” value (HMGB2 [4]) was “the translocation was suppressed by ICM”, the “LPS-induced phosphorylation and acetylation of HMGB2 and HMGB1” value (HMGB2 and HMGB1) was “the post-translational modification was suppressed by ICM” and the “HMGB2 levels in cerebrospinal fluid and serum” value (EAE model; ELISA, FIG. 24) was “effectively suppressed the release of HMGB2 into body fluids”. For the same compound, the “microglial activation in spinal cords (anti-Iba-1 staining)” value (EAE model; FIG. 21) was “clearly suppressed by ICM treatment”, the “mRNA levels of proinflammatory cytokines and chemokines in microglia” value (EAE model; RT-PCR, microglial cells from brain of EAE mice, FIG. 23) was “decreased in the ICM-treated group” and the “mean clinical score (0-5 scale)” value (EAE model; days after MOG immunization, FIG. 20) was “reduced with ICM treatment”. For the same compound, the “HMGB1 or HMGB2 levels in spinal cord sections” value (EAE model; immunofluorescence, FIG. 25) was “effectively reduced the EAE-induced increase of HMGB1 or HMGB2 levels”, the “MAP-2 levels in ventral horn and ventral column” value (EAE model; immunofluorescence, FIG. 26) was “effectively recovered by ICM administration” and the “inflammatory lesions in spinal cords (H&E staining)” value (EAE model; lumbar spinal cord, 15 days after EAE induction, FIG. 22) was “substantially attenuated by ICM treatment”. For the same compound, the “demyelination (anti-MBP staining)” value (EAE model; spinal cord sections, FIG. 27) was “suppresses the demyelination in the EAE model”.
